Common to all, as to assay type: physicochemical
Data set [1] is described as follows: Uncaging experiments, LED irradiation followed by HPLC-UV-MS. The method, then:
(§1) The uncaging experiments were performed using green (4 W input power, λmax=549 nm half-width: 16 nm, output power: 72 mW), orange (4 W input power, λmax=605 nm half-width: 10 nm, output power: 140 mW) and red (4 W input power, λmax=658 nm half-width: 10 nm, output power: 210 mW) LEDs as light source. Sample solutions were prepared, each containing 1 ml of solvent (90% v/v water-MeCN or 90% PBS-MeCN or 100% methanol for the photochemical quantum yield determination) and 0.1 mM or 0.05 mM concentration of the photoactivatable conjugates. The samples were irradiated for a given time using continuous water cooling for the light source. Then, the samples were transferred to the HPLC-UV-MS system and the chromatograms were recorded. The traces at 195 nm, 254 nm or 369 nm (dependent on the cargo moieties) and at the absorption maxima of the photoremovable protecting groups (530 nm, 570 nm or 640 nm) were compared and the corresponding peaks were integrated and compared to reference calibration sets. The possible photoproducts were identified by their corresponding m/z value and also from the UV/VIS spectra from the DAD-equipped instrument. For the dark stability experiments, the HPLC sample solutions were kept in the dark and chromatograms were recorded multiple times.
The photouncaging was evaluated by HPLC-MS using green (4 W input power, λmax=549 nm half-width: 16 nm, output power: 72 mW), orange (4 W input power, λmax=605 nm half-width: 10 nm, output power: 140 mW) and red (4 W input power, λmax=658 nm half-width: 10 nm, for Q=CMe2 output power: 210 mW) LED irradiation. For all compounds the experiments were performed in 90% water/MeCN mixtures as well as in 90% PBS/MeCN (0.1 mM concentration). In all cases, the irradiation led to the release of the model active agents with significant differences based on the photoremovable protecting group, cargo unit and the connecting chemical moiety as well as on the water content of the uncaging medium. Comparing the green light absorbing target conjugates, irradiation of 39 led to the release of 54% phenylacetic acid in 60 s (FIG. 6b), while 180 s (for 50%) was required for the same result in case of 41. Approximately 65% of phenylacetic acid was released after 180 s of irradiation with orange light from model target conjugate 41 (FIG. 6a). The current state of the art BODIPY derivative (for the structure, see the next section),^20,21 released only 12% phenylacetic acid after irradiation for 1800 s. Contrary to the general expectations that increasing the wavelength diminishes photolysis rates, the uncaging of the redshifted Q=CMe2 derivative 43 was also very effective, reaching >70% release of phenylacetic acid in 120 s after red light irradiation (FIG. 6c). The high efficiency of 43 as a red light-activatable photoremovable protecting group was also compared to a π-extended BODIPY derivative (substrate 7 in REF^21, using methanol as the solvent in a concentration of 0.1 mM), the current state of the art in this region of visible light.
Importantly, except in the case of compounds wherein the connecting chemical moiety was a carbonate moiety (i.e., compound 51, FIG. 6f), the target conjugates were stable in water as well as in PBS for 24 hours in the dark. The stability and uncaging rates of several leaving groups was also assessed. Comparing the most important functional groups (carboxylic acid, amine, phenol, alcohol) in potential active agents connected via the typical linkages in the target conjugates, the carbonate bond was the most labile (compound 51, >70% decomposition in 30 s with red light at 50% power) although the long-term dark stability was poor. None of the other model active agents were released in significant quantities, however, after 24-28 hours in the dark (for dark stability data see FIGS. 6a-6h, right side).
Using HPLC-MS, not only the appearance of the released model active agents could be monitored but also the products of photolysis were detectable. […]

The nature of data set [2]: Spectroscopic properties of the target conjugates in PBS. Particulars: for ε (molar absorption coefficient): at the absorption maximum. The procedure:
All starting materials were obtained from commercial suppliers and used without further purification. Analytical thin-layer chromatography (TLC) was performed on silica gel 60 F254 precoated aluminum TLC plates from Merck. Flash column chromatography was performed on Teledyne Isco CombiFlash® Rf+ automated flash chromatographer with silica gel (25-40 μm) from Zeochem. NMR spectra were recorded on a Varian Inova 500 MHz spectrometer. Chemical shifts (δ) are given in parts per million (ppm) using solvent signals or TMS as the reference. Coupling constants (J) are reported in Hertz (Hz). Analytical RP-HPLC-UV/Vis-MS measurements were employed using a Shimadzu LCMS-2020 instrument applying a Gemini C18 column (100×2.00 mm I.D.) in which the stationary phase is […] with a pore size of 110 Å. The chromatograms were detected by a UV-Vis diode array (190-800 nm) and an ESI-MS detector. The following linear gradient elution profile was applied, 0 min 0% B; 6.5 min 100% B; 7 min 0% B; 8 min. 0% B) with eluent A (2% HCOOH, 5% MeCN and 93% water) and B (2% HCOOH, 80% MeCN and 18% water) at a flow rate of 1.0 mL min-1 at 30° C. The samples were dissolved in MeCN—water mixtures. Spectroscopic measurements were performed on a Jasco FP 8300 spectrofluorometer. Quartz cuvettes with path length of 1 cm were used.
The spectroscopic properties of the target conjugates were determined in PBS. […] Compounds with Q=O have absorption bands in the green-yellow region while Q=CMe2 derivatives absorb in the red (up to 700 nm). All of the compounds have moderate to high absorption coefficients and significant fluorescence. The spectroscopic details can be found in Table 1. In the table, λmax means absorption maximum; λem means fluorescence emission maximum; s means molar absorption coefficient (at the absorption maximum).

Data set [3] in a line: Dark stability experiments (HPLC). Particulars: water and PBS, 24 hours in the dark. The procedure: as §1, with “The traces at 195 nm, 254 nm or 369 nm (dependent on the cargo moieties) and at the absorption maxima of the photoremovable protecting groups (530 nm, 570 nm or 640 nm) were compared and the corresponding peaks were integrated and compared to reference calibration sets. The possible photoproducts were identified by their corresponding m/z value and also from the UV/VIS spectra from the DAD-equipped instrument.” left out
Importantly, except in the case of compounds wherein the connecting chemical moiety was a carbonate moiety (i.e., compound 51, FIG. 6f), the target conjugates were stable in water as well as in PBS for 24 hours in the dark. The stability and uncaging rates of several leaving groups was also assessed. […] None of the other model active agents were released in significant quantities, however, after 24-28 hours in the dark (for dark stability data see FIGS. 6a-6h, right side).

The nature of data set [4]: Uncaging quantum yield determination relative to BODIPY reference. To be noted: for ε × Φu, uncaging cross-section / quantum efficiency: at the wavelength in parentheses beside each value (538-660 nm); for Φu, uncaging quantum yield: calculated from active agent release; for Φu, uncaging quantum yield / Φdeg, degradation quantum yield: green light irradiation; for Φdeg, degradation quantum yield: calculated from the disappearance of the target conjugate. The method, then: The relative photochemical quantum yields of the uncaging reactions together with the degradation quantum yields were determined from the results of the quantitative HPLC-UV experiments. In all cases, green light irradiation was used since all target conjugates absorbed in this range as well as the reference BODIPY. The photochemical quantum yields were determined using the following equation:
[formula] • where • Φu is the photochemical quantum yield of the sample • Φu,ref is the photochemical quantum yield of the reference • k is the obtained reaction rate constant of the photoreaction of the sample • kref is the obtained reaction rate constant of the photoreaction of the reference • c is the concentration of the sample • cref is the concentration of the reference • V is the volume of the sample • Vref is the volume of the reference • a is the absorption correction factor of the sample • aref is the absorption correction factor of the reference
The absorption correction factors (a) were determined from the molar absorption coefficients and the green LED emission data obtained by the fluorimeter. […] In other words, the transmittance at each wavelength together with the emission data of the light source can be used to calculate the percentage of absorbed photons according to the following equation:
[formula] • where • T(λ) is the transmittance at each wavelength (determined from the molar absorption coefficients) • F(λ) is the LED emission at each wavelength • λmin, λmax is the LED emission range.
The rate constants of the photoreactions were determined by considering the reactions monoexponential with an initial linear phase (up to 10-20% degradation). First, the concentration vs. HPLC-UV peak were determined for each cargo moieties. […] The rate constants were determined for both the reference (with known Φu) and the sample. For reference, a commonly known BODIPY derivative was used with a similar phenylacetic acid-derived cargo unit (substrate 7 from REF^40), Φu=0.15%:
The calculated photochemical quantum yields together with uncaging cross-sections or quantum efficiencies (product of the molar absorption coefficient at a given wavelength, shown in parentheses and the photochemical quantum yield) are shown in Table 2. In the table, Φu is the photochemical quantum yield of the release; Φdeg is the photochemical quantum yield of degradation; ε×Φu is the uncaging cross-section or quantum efficiency of the release at a given wavelength in parentheses.

A value given as a limit tells only on which side of the number the result lay.

`CC(OC(=O)Oc1ccccc1)C1=C2C=CC(=[N+]3CCCC3)C=C2C(C)(C)c2cc(N3CCCC3)ccc21.[I-]` (stereo not shown) [Compound 51, 1-(9,9-dimethyl-10-(1-((phenoxycarbonyl)oxy)ethyl)-7-(pyrrolidin-1-yl)anthracen-2 (9H)-ylidene)pyrrolidin-1-ium iodide] registered a decomposition in data set [1] (red light at 50% power, 30 s) of over 70%. Also, in data set [2], the “λem (fluorescence emission maximum)” value is on record as 676 nm, the “λmax (absorption maximum)” value was 643 nm and the “ε (molar absorption coefficient)” value is given as 73 300 M^−1cm^−1. In data set [3], the dark stability entry was “reduced and poor”. For the same molecule, in data set [4], the “ε × Φu, uncaging cross-section / quantum efficiency” value was 13 200 M^−1cm^−1; the “Φu, uncaging quantum yield” value is recorded as 18%; the “Φdeg, degradation quantum yield” value is 25%.

Consider `CC(OC(=O)Cc1ccccc1)C1=C2C=CC(=[N+]3CCCC3)C=C2C(C)(C)c2cc(N3CCCC3)ccc21.[I-]` (stereo not shown) [Compound 43, 1-(9,9-dimethyl-10-(1-(2-phenylacetoxy)ethyl)-7-(pyrrolidin-1-yl)anthracen-2 (9H)-ylidene)pyrrolidin-1-ium iodide], for which, in data set [1] (methanol, 0.1 mM, red light), the “increase in the photolysis rate versus π-extended BODIPY derivative” value was “approximately 5 fold”. Besides, in data set [1] (red light, 120 s), the “release of phenylacetic acid” value is listed as over 70%. In data set [2], the “λem (fluorescence emission maximum)” value stood at 674 nm, the “λmax (absorption maximum)” value worked out at 641 nm and the “ε (molar absorption coefficient)” value is reported as 86 000 M^−1cm^−1. Also, in data set [4], the “ε × Φu, uncaging cross-section / quantum efficiency” value amounted to 1400 M⁻¹ cm⁻¹; the “Φu, uncaging quantum yield” value is on record as 1.7%; the “Φdeg, degradation quantum yield” value is on record as 2.2%.

As for `CC(OC(=O)Cc1ccccc1)c1c2ccc(=[N+]3CCCC3)cc-2oc2cc(N3CCCC3)ccc12.[I-]` (stereo not shown) [Compound 41, 1-(9-(1-(2-phenylacetoxy)ethyl)-6-(pyrrolidin-1-yl)-3H-xanthen-3-ylidene)pyrrolidin-1-ium iodide], the “irradiation time required for 50% release of phenylacetic acid” value in data set [1] (green light) was found to be 180 s. The “release of phenylacetic acid” value in data set [1] (orange light, 180 s) is reported as “Approximately 65%”. Besides, in data set [2], the “λem (fluorescence emission maximum)” value is reported as 592 nm, the “λmax (absorption maximum)” value came to 570 nm and the “ε (molar absorption coefficient)” value is on record as 70 000 M^−1cm^−1. In data set [4], the “ε × Φu, uncaging cross-section / quantum efficiency” value is 1020 M⁻¹ cm⁻¹; the “Φu, uncaging quantum yield” value is on record as 1.5%; the “Φdeg, degradation quantum yield” value is 1.9%.

Take `CC(OC(=O)Cc1ccccc1)c1c2ccc(=O)cc-2oc2cc(N3CCCC3)ccc12` (stereo not shown) [Compound 39, 1-(3-oxo-6-(pyrrolidin-1-yl)-3H-xanthen-9-yl)ethyl 2-phenylacetate]: the “release of phenylacetic acid” value in data set [1] (green light, 60 s) worked out at 54%. In addition, in data set [2], the “λem (fluorescence emission maximum)” value is 564 nm, the “λmax (absorption maximum)” value worked out at 538 nm and the “ε (molar absorption coefficient)” value is listed as 22 700 M^−1cm^−1. For the same molecule, in data set [4], the “ε × Φu, uncaging cross-section / quantum efficiency” value is 1070 M⁻¹ cm⁻¹; the “Φu, uncaging quantum yield” value is 4.7%; the “Φdeg, degradation quantum yield” value is reported as 6.2%.

Values taken from patent US20260055118A1, “VISIBLE LIGHT SENSITIVE PHOTOREMOVABLE PROTECTING GROUPS, PREPARATION PROCESS THEREOF, PHOTOACTIVATABLE CONJUGATES COMPRISING THEM AND USES THEREOF” (HUN-REN TERMÉSZETTUDOMÁNYI KUTATÓKÖZPONT, priority 2022, published 2026).
